From ChEMBL document CHEMBL2429769, “Synthesis and bioconversions of formestane” (J Nat Prod, 2013)

Assays:
MCF7 = assay: Cytotoxicity against human MCF7 cells after 72 hrs by SRB assay; assay type: functional, cell-based; details: MCF7, 72 h
Aromatase = target: T1, Aromatase (Homo sapiens, UniProt P11511)
T1 sequence (P11511 whole entry): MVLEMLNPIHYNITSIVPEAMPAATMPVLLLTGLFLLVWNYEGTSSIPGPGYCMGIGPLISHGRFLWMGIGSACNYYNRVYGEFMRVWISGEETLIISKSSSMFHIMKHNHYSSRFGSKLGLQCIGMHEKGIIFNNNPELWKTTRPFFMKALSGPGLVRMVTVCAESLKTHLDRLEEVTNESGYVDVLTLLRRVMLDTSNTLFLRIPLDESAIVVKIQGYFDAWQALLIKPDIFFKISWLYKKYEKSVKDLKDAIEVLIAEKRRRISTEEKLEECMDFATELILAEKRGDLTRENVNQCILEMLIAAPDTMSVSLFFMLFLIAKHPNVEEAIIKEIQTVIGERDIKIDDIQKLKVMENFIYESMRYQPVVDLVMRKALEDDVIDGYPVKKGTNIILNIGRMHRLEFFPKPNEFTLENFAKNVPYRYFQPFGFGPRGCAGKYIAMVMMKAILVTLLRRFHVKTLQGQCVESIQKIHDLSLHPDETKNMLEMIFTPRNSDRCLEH
Description: Inhibition of aromatase (unknown origin) using dibenzylfluorescein as substrate after 30 mins by fluorescence assay

| SMILES | IC50 (MCF7) | IC50 (Aromatase) |
| --- | --- | --- |
| C[C@]12CC[C@H]3[C@@H](CC[C@@]4(O)[C@@H](O)C(=O)CC[C@]34C)[C@@H]1CCC2=O | 15 µM | 29.1 µM |
| CC[C@]1(O)C[C@@H]2CN(CCc3c([nH]c4ccccc34)[C@@](C(=O)OC)(c3cc4c(cc3OC)N(C)[C@H]3[C@@](O)(C(=O)OC)[C@H](OC(C)=O)[C@]5(CC)C=CCN6CC[C@]43[C@@H]65)C2)C1 [VINBLASTINE] | 0.0109 µM |  |
| C[C@]12CC[C@@H](O)C(=O)[C@H]1CC[C@@H]1[C@@H]2CC[C@]2(C)[C@@H](O)CC[C@@H]12 [3ALPHA,17BETA-DIHYDROXY-5BETA-ANDROSTAN-4-ONE] | 16.4 µM | 3.9 µM |
| C[C@]12CCC(=O)C(O)=C1CC[C@@H]1[C@@H]2CC[C@]2(C)C(=O)CC[C@@H]12 [FORMESTANE] | 20 µM | 58.6 µM |
| C[C@]12C[C@@H](O)[C@H]3[C@@H](CCC4=C(O)C(=O)CC[C@@]43C)[C@@H]1CC[C@@H]2O | 12.5 µM | 10.9 µM |
| C[C@]12CC[C@H]3[C@@H](CCC4=C(O)C(=O)CC[C@@]43C)[C@@H]1CC[C@@H]2O | 16.5 µM | 47 µM |
